# Test results from US11292807B2 (OCEANS LTD., priority 2015, dated 2022).
# Experiments:
# [1] = system: MDA-MB; conditions: MDA-MB; 250 ug/ml
# [2] = system: PC3; assay: CIMA assay, cell viability, PC3; conditions: PC3; 250 ug/ml
# [3] = system: U373 (glioblastoma-astrocytoma); assay: CIMA assay, cell viability, U373; conditions: U373; 250 ug/ml
# [4] = system: SKOV3 (ovarian adenocarcinoma); assay: CIMA assay, cell viability, SKOV3; conditions: SKOV; 250 ug/ml
# [5] = system: THP-1 (acute monocytic leukemia); assay: CIMA assay, cell viability, THP-1; conditions: THP-1; 250 ug/ml
# Method: (§1) Stock solutions of the extracts were prepared in dimethylsulfoxide (DMSO) at 10 mg/mL and stored in 200 μl aliquots at −20° C. until analysis. This preparation ensured that the DMSO delivered to cells in culture never exceeded 1%.
# (§2) Prepared extracts were assessed following chronic exposure conditions in which cells were seeded at 2×10^3 cells/well (96 well-plate) and incubated with test compounds for 72 h. Each compound was evaluated over a range of concentrations (0, 10, 25, 50 or 100 μg/ml). Cell proliferation was initially assessed using a standard colorimetric indicator of metabolic activity (CIMA) assay. In this assay, tetrazole reduction was evaluated as a measure of metabolic function that evaluates mitochondrial activity to determine the extent of cell proliferation within a culture. This assay is based on the reduction of yellow tetrazolium salt to purple formazan by mitochondrial reductases enzyme in viable cells, resulting in a color changed that confers a change in absorbance.
# [6] = system: A549 (lung carcinoma); assay: CIMA assay (colorimetric indicator of metabolic activity), cell viability, A549; conditions: A549; 250 ug/ml
# Method: as §1, §2
smiles,measurement,setting,value
CCCCCCCCCCCCOS(=O)(=O)[O-].[Na+] [cont-SDS],"In vitro activity against cancer cell lines, MDA-MB AVG",[1],0.16
same,"In vitro activity against cancer cell lines, PC3 AVG",[2],0.08
same,"In vitro activity against cancer cell lines, U373 AVG",[3],0.05
same,"In vitro activity against cancer cell lines, SKOV AVG",[4],0.10
same,"In vitro activity against cancer cell lines, THP-1 AVG",[5],0.18
same,"In vitro activity against cancer cell lines, A549 AVG",[6],0.13
